Measured values from patent publication US20190169140A1, “IDO1 INHIBITOR AND PREPARATION METHOD AND APPLICATION THEREOF” (SHANDONG LUYE PHARMACEUTICAL CO., LTD., priority 2016, published 2019).

Columns and labels:
mice colon cancer CT26 = conditions: according to document reports; cited from earlier work
[1] = Liver microsome stability, mouse; assay type: in vitro ADME, CD-1 mice; conditions: mouse liver microsomes; for CLint scaled: CD-1, read-out: Intrinsic clearance; for Remaining % (60 min): 37° C.
Experimental: (§1) The purpose of research in the present experiment is assessing phase I metabolic stability of the sample for test in CD-1 mice, SD rats, and human liver microsomes.
(§2) The animals and human liver microsomes used in this test system were purchased from BD Gentest, Xenotech, Corning or BioreclamationIVT, and stored in a refrigerator at −80° C. before use.
(§3) The sample for test and control were incubated together with the microsomes under a condition of 37° C. for 60 minutes, and a cold acetonitrile solution (or other organic solvents) containing an internal standard substance was added at a designated time point to terminate the reaction. After centrifugation, a resultant supernatant was assayed in a semiquantitative manner through liquid chromatography tandem mass spectrometry (LC/MS/MS). Software Analyst (AB Sciex, Framingham, Mass., USA) was used for processing retention time of analyte and internal standard, and achieving chromatogram collection, and chromatogram integration
(§4) An in vitro elimination rate constant ke of the sample was obtained by converting a ratio of the sample to a peak area of the internal standard to remaining percentage, to calculate an in vitro elimination rate and half-life of the sample for test.

[2] = Liver microsome stability, rat; assay type: in vitro ADME, SD rats; conditions: rat liver microsomes; for CLint scaled: SD, read-out: Intrinsic clearance; for Remaining % (60 min): 37° C.
Experimental: as §1, §2, §3, §4

[3] = Liver microsome stability, human; assay type: in vitro ADME; conditions: human liver microsomes; for Remaining % (60 min): 37° C.; for CLint scaled: read-out: Intrinsic clearance
Experimental: as §1, §2, §3, §4

CYP1A2 = biological target: T1, CYP1A2 (Homo sapiens, UniProt P05177); experiment: Inhibition on human liver microsome CYP1A2; assay type: in vitro ADME; conditions: human liver microsomes; for IC50: 5-in-1 probe substrate
T1 construct: tissue Corning Inc. or XenoTech, LLC. or other suppliers; host or cells: mixed human liver microsomes
T1 sequence (P05177 1-516): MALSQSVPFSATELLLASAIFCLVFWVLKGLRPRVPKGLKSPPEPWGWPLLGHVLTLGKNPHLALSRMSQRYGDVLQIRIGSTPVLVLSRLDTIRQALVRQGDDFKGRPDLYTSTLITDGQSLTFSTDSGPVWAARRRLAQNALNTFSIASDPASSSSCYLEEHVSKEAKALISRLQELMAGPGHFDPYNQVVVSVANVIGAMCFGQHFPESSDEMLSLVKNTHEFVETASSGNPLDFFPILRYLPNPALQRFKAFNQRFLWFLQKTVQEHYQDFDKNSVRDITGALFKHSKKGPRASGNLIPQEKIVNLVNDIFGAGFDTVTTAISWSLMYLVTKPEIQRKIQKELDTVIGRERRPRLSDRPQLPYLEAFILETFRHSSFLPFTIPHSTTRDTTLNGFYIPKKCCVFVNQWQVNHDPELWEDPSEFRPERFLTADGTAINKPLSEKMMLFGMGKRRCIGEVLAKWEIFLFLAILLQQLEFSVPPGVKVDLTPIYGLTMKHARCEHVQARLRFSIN
Experimental: The research project aimed at evaluating inhibitory ability of a sample for test on human liver microsome cytochrome P450 isozymes (CYP1A2, CYP2C9, CYP2C19, CYP2D6, and CYP3A4) with use of a 5-in-1 probe substrate for CYP isozymes.
Mixed human liver microsomes (HLM) were purchased from Corning Inc. (Steuben, N.Y., USA) or XenoTech, LLC. (Lenexa, Kans., USA) or other suppliers, and stored in a condition below −70° C. before use.
Diluted working solutions of the sample for test in serial concentrations were added to an incubation system containing the human liver microsomes, probe substrate, and accessory factors of a cycling system, and a control containing no sample for test but a solvent was taken as a control for enzymatic activity (100%). Concentration of metabolites generated by the probe substrate in the sample was measured with a method of liquid chromatography-tandem mass spectrometry (LC-MS/MS). Nonlinear regression analysis of mean percentage activity vs concentration of the sample for test was carried out using SigmaPlot (V.11). An IC^50 value was calculated through a three-parameter or four-parameter inflection logarithmic equation.

Compound | growth of tumors in mice colon cancer CT26 model (mice colon cancer CT26) | CLint scaled [1] [mL/min/kg] | metabolic stability in words [1] | Remaining % (60 min) [1] [%] | CLint scaled [2] [mL/min/kg] | metabolic stability in words [2] | Remaining % (60 min) [2] [%] | metabolic stability in words [3] | Remaining % (60 min) [3] [%] | CLint scaled [3] [mL/min/kg] | inhibiting effect on CYP1A2 in words (CYP1A2) | IC50 (CYP1A2) [µM]
NS(=O)(=O)NCCNc1nonc1C(=NO)Nc1ccc(F)c(Br)c1 [Compound 360, INCB024360, reference compound] | effectively inhibit growth of tumors |  |  |  |  |  |  |  |  |  |  | 
NC(=O)NCCSc1nonc1/C(=N/O)Nc1ccc(F)c(Br)c1 [Compound 0231] |  | 134 | metabolized quickly | 35.8 | 23.7 | metabolized in a relatively steady manner | 64.8 | metabolized in a relatively steady manner | 81.6 | < 8.6 | relatively weak effect | > 50
CC(=O)NCCSc1nonc1/C(=N/O)Nc1ccc(F)c(Br)c1 [Compound 0227] |  | 275 | metabolized quickly | 11.0 | 91.9 | metabolized quickly | 21.6 | metabolized in a moderate manner | 56.9 | 15.3 |  | 13
